In test [1] the test system is human acute myeloma MOLM-13 cell line subcutaneous xenograft. The experiment in a line: Inhibition of Molm-13 subcutaneous xenograft tumor in vivo. Further details: species or system NOD/SCID female mice. The note with it: for Average tumor volume Day 0: baseline. The procedure:
The purpose of this assay is to evaluate the pharmacodynamics of the compounds in the NOD/SCID female mice model of human acute myeloma MOLM-13 cell line subcutaneous xenograft.
MOLM-13 cells were cultured in RPMI-1640 medium containing 10% fetal bovine serum. The MOLM-13 cells were collected in the exponential growth phase, and resuspended in PBS to a suitable concentration for subcutaneous tumor inoculation in nude mice.
The assay mice were inoculated with 5×10^6 MOLM-13 cells resuspended in 0.1 ml of PBS (0.1 ml per mouse) subcutaneously on the right back. Tumor growth was regularly observed. When the tumor grew to an average volume of 98 mm^3, the mice were randomly divided into groups and administered according to tumor size and body weight of the mice.
After the start of administration, the body weight and tumor size of the mice were measured three times a week. The formula for calculating the tumor volume is: tumor volume (mm^3)=½×(a×b^2) (where a represents the long diameter and b represents the short diameter).

The subject of the next test is MV-4-11 cells. Briefly: Assay of inhibiting proliferation of MV-4-11 in vitro (CellTiter-Glo). It is filed as cell-based. Particulars: Homo sapiens, MV4-11, 72 h, 3 days. The procedure:
IMDM medium, fetal bovine serum, and penicillin/streptomycin antibiotics were purchased from Promega (Madison, Wis.). The MV-4-11 cell line was purchased from the Cell Bank of the Chinese Academy of Sciences. Envision Multi-Label Analyzer (PerkinElmer).
MV-4-11 cells were seeded in a white 96-well plate with 80 μL of cell suspension per well containing 10,000 MV-4-11 cells. The cell plate was cultured overnight in a carbon dioxide incubator.
The compounds to be tested were 5-fold serially diluted with a pipette to obtain eight concentrations, i.e., from 2 mmol/L to 26 nmol/L. The assay was carried out in duplicate. 78 μL of medium was added to the intermediate plate, and then 2 μL per well of the serially diluted compounds were transferred to the intermediate plate according to the corresponding position. After mixing, an amount of 20 μL per well was transferred to the cell plate. The cell plate was cultured in a carbon dioxide incubator for 3 days.
25 μL per well of Promega CellTiter-Glo reagent was added to the cell plate and incubated at room temperature for 10 minutes to stabilize the luminescence signal. A PerkinElmer Envision multi-label analyzer was used for reading.
The original data was converted into an inhibition rate, and the IC50 value can be obtained by four-parameter curve fitting.
A general note: In ATP-based viability assays light output follows the ATP content of the culture.

In test [2] the test system is human biphenotypic B bone marrow mononuclear leukemia cell MV4-11 subcutaneous xenograft tumor. Briefly: Inhibition of MV4-11 subcutaneous xenograft tumor in vivo. The note with it: for Average tumor volume Day 25 / Average tumor volume Day 35: then drug withdrawal; for Average tumor volume Day 0: baseline at start of dosing. On the set-up: species or system nude mice. The procedure: In this assay, the anti-tumor effect of the compounds was evaluated using a nude mice model of subcutaneous xenograft tumor of human biphenotypic B bone marrow mononuclear leukemia cell MV4-11.
Human biphenotypic B bone marrow mononuclear leukemia cell MV4-11 was cultured in vitro in suspension with a RPMI1640 medium supplemented with 10% fetal bovine serum, 100 U/mL penicillin and 100 μg/mL streptomycin in a 5% CO2 cell incubator at 37° C. Routine passaging was performed twice a week. Cells in the logarithmic growth phase were collected, counted and then used for inoculation.
10×10^6 MV4-11 cells were inoculated subcutaneously on the back of the right neck of each mouse, wherein the inoculation volume was 0.2 mL, and the cell suspension was PBS plus matrigel (volume ratio 1:1). The assay of efficacy in vivo was performed on the 13th day after the cell inoculation, at which time the average tumor volume reached 181 mm^3. The mice were randomly divided into groups with 6 mice in each group, and administration to the mice started.
The diameter of the tumor was measured with vernier calipers twice a week. The formula for calculating the tumor volume is: V=0.5a×b^2, where a and b represent the long and short diameters of the tumor, respectively.
After 14 days of administration, the administration was stopped, and the rebound of the tumor was observed.

[3] abbreviates: 20 mg/kg oral once a day for 14 days.
Where [4] appears, read: 5 mg/kg oral once a day for 14 days.

As to `CCc1nc(C(N)=O)c(Nc2ccc(N3CCC4(CCN(C)CC4)CC3)c(C)c2)nc1NC1CCOCC1` [Compound of formula (I)], the results for the “Average tumor volume Day 11” value in test [1] (15 mg/kg oral once a day) and in test [1] (50 mg/kg oral once a day) were 156.85 cubic millimeter and 53.08 cubic millimeter, respectively. The “Average tumor volume Day 15” value is listed as 223.09 cubic millimeter in test [1] (15 mg/kg oral once a day) and 0 cubic millimeter in test [1] (50 mg/kg oral once a day). Further, the “Average tumor volume Day 0” value was 98.34 cubic millimeter in test [1] (15 mg/kg oral once a day group) and 98.05 cubic millimeter in test [1] (50 mg/kg oral once a day group).
Usually IC50 stands for the midpoint of a concentration-inhibition curve. `CCc1nc(C(N)=O)c(Nc2ccc(N3CCC4(CCN(C)CC4)CC3)c(OC)c2)nc1NC1CCOCC1` [Compound A] had an IC50 with MV-4-11 cells of 5.4 nM. In test [2] (20 mg/kg oral once a day), the “% Inhibition rate on day 14” value is given as 118% and the “Average tumor volume Day 14” value is given as 39 cubic millimeter. Besides, in test [2] (setting [3]), the “Average tumor volume Day 25” value turned out to be 258 cubic millimeter and the “Average tumor volume Day 35” value stood at 988 cubic millimeter. In addition, in test [2] (20 mg/kg oral once a day group), the “Average tumor volume Day 0” value is on record as 181 cubic millimeter.
In the case of `CCc1nc(C(N)=O)c(Nc2ccc(N3CCC(N4CCN(C)CC4)CC3)c(OC)c2)nc1NC1CCOCC1` [Compound B], the IC50 in the test on MV-4-11 cells is 4.65 nM. Further, in test [2] (5 mg/kg oral once a day), the “% Inhibition rate on day 14” value worked out at 118% and the “Average tumor volume Day 14” value was 41 cubic millimeter. In test [2] (setting [4]), the “Average tumor volume Day 25” value was found to be 320 cubic millimeter and the “Average tumor volume Day 35” value was 1279 cubic millimeter. Further, the “Average tumor volume Day 0” value in test [2] (5 mg/kg oral once a day group) amounted to 181 cubic millimeter.

(Values after patent publication US11691974B2, “3,9-diazaspiro[5,5]undecane compound as FLT3 and AXL inhibitors” (MEDSHINE DISCOVERY INC., priority 2018, dated 2023).)
